In US20260335323A1, “CHIMERIC MOLECULE” (UCL Business Ltd, priority 2023, published 2026):

Columns and labels:
Assay type in all cases: cell-based, human
H1299 cells [1] = test: Cell viability assay (CellTiter Glo), H1299; conditions: H1299, increasing concentrations
Method: (§1) A549 and H1299 cells were seeded in OptiPlate-384 well plates and treated with increasing concentrations of (+)-JQ1 or NZ-147 from 0 μM to 10 µM in Example 8 and with increasing concentrations of NZ-175 from 0 µM to 10 µM in Example 9. Cells were treated for 120 h before using the luciferase based CellTiter Glo assay (Promega) to measure cell viability.
(§2) Cell viability assay was performed in A549 and H1299 cells, which were treated with different concentrations of (+)-JQ1 or NZ-147 at 100 nM for 72 hours (FIG. 10B).
(§3) Cell viability assay was performed in A549 and H1299 cells, which were treated with different concentrations of NZ-147 at 100 nM for 72 hours (FIG. 16B).

A549 cells [2] = test: Cell viability assay (CellTiter Glo), A549; conditions: A549, increasing concentrations
Method: as §1, §2, §3

c-MYC controlled genes = test: RT-qPCR of c-MYC controlled genes in CAL51 cells; conditions: 100 nM, 72 hours
Method: FIG. 11. RT-qPCR quantification of expression of c-MYC controlled genes in CAL51 triple negative breast cancer cell line treated with DMSO, 100 nM (+)-JQ1 or 100 nM NZ-147 for 72 hours. […] MDM2 (A) and CCNE (B) are controlled by cMYC in oncogenic settings, PAICS (C) is a putative target of c-MYC, and eIF4E (D) is a known target of cMYC. n=3, *p<0.05, ** p<0.01, *** p<0.001.
RNA was extracted with the Qiagen RNeasy Mini kit following manufacturers protocol. RT-qPCR SYBR assay was carried out with Mesa Blue following manufacturers instructions, 80 ng RNA per well, experimental triplicates, BioRad CTX Connect qPCR machine. RNA levels were normalized to GAPDH. Experiments were done in biological triplicate. The primers used were as follows:
The levels of c-MYC controlled genes (determined using RT-qPCR) in CAL51 triple negative breast cancer cell line after treatment with DMSO, 100 nM (+)-JQ1 or 100 nM NZ-147 for 72 hours is shown in FIG. 11. In particular MDM2 (FIG. 11A) and CCNE (FIG. 11B) are controlled by cMYC in oncogenic settings, PAICS (FIG. 11C) is a putative target of c-MYC, and elF4E (FIG. 11D) is a known target of c-MYC.

H1299 cells [3] = test: Colony formation assay, H1299; conditions: H1299, 100 nM, 72 hours
Method: (§4) A549 and H1299 cells were seeded in 12 well plates at approximately 100 cells per well. In Example 8, wells were treated with DMSO, (+)-JQ1 or NZ-147. In Example 9, cells were treated with DMSO or NZ-175. Colonies were allowed to form over 120 h. Cells were fixed and stained with crystal violet staining solution, prepared in 70% ethanol.
(§5) A colony formation assay was performed in A549 and H1299 cells, which were treated with DMSO, (+)-JQ1 or NZ-147 at 100 nM for 72 hours and stained with crystal violet (FIG. 10A).
(§6) A colony formation assay was performed in A549 and H1299 cells, which were treated with DMSO or NZ-175 at 100 nM for 72 hours and stained with crystal violet (FIG. 16A).

A549 cells [4] = test: Colony formation assay, A549; conditions: A549, 100 nM, 72 hours
Method: as §4, §5, §6

c-MYC [5] = test: c-MYC immunofluorescence in hTERT-cMYC-ER expressing RPE1 cells; conditions: 100 nM, 72 hours, 4-OHT and/or compound
Method: FIG. 9. (A) Schematic representation of hTERT-cMYC-ER expressing RPE1 cells. Treatment with 4-hydroxytamoxifen (4-OHT) translocates c-MYC-ER from the cytoplasm into the nucleus, simulating oncogenic c-MYC. (B) Immunofluorescence images of hTERT-cMYC-ER expressing RPE1 cells treated with DMSO, (+)-JQ1 or NZ-147 at 100 nM for 72 hours, each with or without 4-OHT.
RPE1-hTERT-c-MYC-ER cells were seeded in a 384 well PerkinElmer CellCarrier Ultra plate. In Example 8, cells were treated for 72 hours with DMSO, (+)-JQ1±4-OHT, or, NZ-147±4-OHT. In Example 9, cells were treated for 72 hours with 4-OHT, NZ-175, both, or neither. Thereafter, in both Examples 8 and 9, cells were fixed with 4% paraformaldehyde (PFA) in phosphate buffered saline (PBS) and blocked with 10% FBS and 0.1% Triton in PBS. Plates were incubated at 4° C. overnight, with 1:500 rabbit anti-c-MYC (D84C12) rabbit monoclonal antibody (#5605, Cell Signalling Technologies). The following day, plates were incubated with 1:1000 goat anti-rabbit Alexa 488 (ThermoFisher Scientific, #A-11008) and 1.62 μM Hoechst 33342 at room temperature for 1 hour before imaging. Excitation and emission spectra for each channel are as follows: Hoechst 33342=405/435-480 nm, Alexa 488=488/500-550 nm. Images were acquired at 40× and 63× magnification with water immersion lens.

phospho-CHK1 (S345) = test: Western blot, phospho-CHK1 in RPE1-hTERT-cMYC-ER cells (replication stress); conditions: 72 h; NZ-175 at 100 nM with 4-OHT
Method: (§7) FIG. 15. NZ-175 rescues oncogenic c-MYC induced replication stress (100 nM, 72 h) (A) Western blot of RPE1-hTERT-cMYC-ER treated with 4-OHT and/or NZ-175 at 100 nM for 72 hours. 4-OHT treatment simulates oncogenic c-MYC-induced replication stress, observed by upregulation of phospho-CHK1 (S345), pRPA (S4/S8) and γH2AX. […] Quantification of blot is shown for pCHK1 […] (B), pRPA (S4/S8) (C), and YH2AX (D). n=3, mean±SEM, *p<0.05, ** p<0.01, *** p<0.001.
(§8) Cells were homogenised in protein lysis buffer consisting of 0.1 M Tris pH 8.0, 0.1 M NaCl, 5% glycerol, IGEPAL® CA-630 (#18896. Sigma-Aldrich) and 5 mM EDTA, 0.1 M N-ethyl maleimide (ThermoFisher, #23030) and protease inhibitor (Cell Signalling Technologies, #5871). Protein concentrations were determined using the BCA assay to ensure equal loading. […] The membranes were immunoblotted with primary antibodies, overnight at 4° C. […]
(§9) Membranes were then incubated with horseradish peroxidase (HRP)-conjugated secondary antibodies (Rabbit #7074 and Mouse #7076) purchased from Cell Signalling Technologies for 1 hour and the HRP signal was detected using EZ-ECL Enhanced Chemiluminescence Detection Kit for HRP (#20-500-500, Sartorius), and imaged with an Alliance Q9 Advanced (UVITec). […]
(§10) To see if NZ-175 could rescue this phenotype, RPE1-hTERT-cMYC-ER cells treated with 4-OHT and/or 100 nM NZ-175 for 72 h were analysed by Western blotting (FIG. 15A). […]

γH2AX = test: Western blot, γH2AX in RPE1-hTERT-cMYC-ER cells (replication stress); conditions: 72 h; NZ-175 at 100 nM with 4-OHT
Method: as §7, §8, §9, §10

pRPA (S4/S8) = test: Western blot, pRPA (S4/S8) in RPE1-hTERT-cMYC-ER cells (replication stress); conditions: 72 h; NZ-175 at 100 nM with 4-OHT
Method: as §7, §8, §9, §10

MAX = test: Western blot, MAX in RPE1-hTERT-cMYC-ER cells; conditions: 100 nM, 72 h, 4-OHT and/or compound
Method: (§11) FIG. 12. c-MYC and MAX degradation enabled by NZ-175. (A) Schematic representation of hTERT-cMYC-ER expressing RPE1 cells. Treatment with 4-hydroxytamoxifen (4-OHT) translocates c-MYC-ER from the cytoplasm into the nucleus, simulating oncogenic c-MYC. (B) Western blot of RPE1-hTERT-cMYC-ER treated with 4-OHT and/or 100 nM NZ-175 for 72 hours. Quantification of c-MYC-ER (C), c-MYC (D) and MAX (E).
as §8, §9
(§12) RPE1-hTERT-cMYC-ER cells were treated with 4-OHT and/or 100 nM NZ-175 for 72 h and analysed by Western blotting (FIG. 12A). The levels of c-MYC-ER (FIG. 12B), c-MYC (FIG. 12C) and MAX (FIG. 12D) were quantified.

c-MYC [6] = test: Western blot, c-MYC in RPE1-hTERT-cMYC-ER cells; conditions: 100 nM, 72 h, 4-OHT and/or compound
Method: as §11, §8, §9, §12

p-Ub (S65) [7] = test: Western blot, p-Ub (S65) in PINK-null PD patient fibroblasts
Method: (§13) FIG. 7. ULKTACs restore mitophagic activity in PINK-null PD patient fibroblasts (A) Western blot of patient derived fibroblasts, healthy control vs. PINK null, treated with […] NZ-65 or NZ-66 for 18 h or 10 μM FCCP for 2 h and probed for total Ub, pUb(S65), Mfn2 and b-Actin with quantification for the changes in the pUB (S65): Total Ub ratio shown in (B) and Mfn2 (C), respectively normalised to b-Actin. (D) Representative immunofluorescence of primary human fibroblasts isolated from wild type controls and PINK-null Parkinson's disease patients, treated with 10 µM FCCP, 1 μM NZ-65 or 1 μM NZ-66 and immunostained for TOM20 and ULK1; counterstained with Alexa 488 and Alexa 568 antibodies. Nuclei stained with Hoechst 33342. The quantification of these immunofluorescence experiments is shown in (E). Data shown are mean±SEM, n=3, *** p<0.001, two-way ANOVA with Tukey's multiple comparisons test.
as §8

p-Ub (S65) [8] = test: Western blot, p-Ub (S65) in WT fibroblasts; conditions: 10 μM FCCP, 2 h
Method: as §13, §8

Cc1sc2c(c1C)C(c1ccc(Cl)cc1)=N[C@@H](CC(=O)OC(C)(C)C)c1nnc(C)n1-2 [(+)-JQ1, reference compound]
percentage of live cells (H1299 cells [1]): dose-dependent decrease in the percentage of live cells
percentage of live cells (A549 cells [2]): dose-dependent decrease in the percentage of live cells
expression of c-MYC controlled genes (MDM2, CCNE, PAICS, eIF4E) (c-MYC controlled genes): reduces the expression of c-MYC controlled genes

C/C=C/C(=O)NCc1ccc(C(=O)Nc2ccccc2Oc2ccc(OCC(=O)NCCOCCOCCOCCn3cc(COc4ccc([C@@H](NC(=O)Nc5cc(C(F)(F)F)cc(C(F)(F)F)c5)C(=O)Nc5ccc(F)cc5F)cc4)nn3)cc2)cc1 [NZ-175, (R)-4-(crotonylamidomethyl)-N-(2-(4-((14-(4-((4-(1-(3-(3,5-bis(trifluoromethyl)phenyl)ureido)-2-((2,4-difluorophenyl)amino)-2-oxoethyl)phenoxy)methyl)-1H-1,2,3-triazol-1-yl)-2-oxo-6,9,12-trioxa-3-azatetradecyl)oxy)phenoxy)phenyl) benzamide]
colony formation (H1299 cells [3]): Fewer colonies formed
colony formation (A549 cells [4]): Fewer colonies formed
c-MYC degradation (time-course immunofluorescence) (c-MYC [5]): c-MYC degradation
phospho-CHK1 (S345), replication stress (phospho-CHK1 (S345)): rescues this phenotype
γH2AX, replication stress (γH2AX): rescues this phenotype
pRPA (S4/S8), replication stress (pRPA (S4/S8)): rescues this phenotype
degradation of MAX (MAX): proximal degradation of MAX
degradation of c-MYC (c-MYC [6]): initiates degradation of c-MYC

N#CC(C#N)=NNc1ccc(OC(F)(F)F)cc1 [FCCP]
p-Ub (S65) levels (p-Ub (S65) [7]): does not occur in the PINK-null cells
p-Ub (S65) levels (p-Ub (S65) [8]): substantial increase in p-Ub (S65) levels

4-hydroxytamoxifen [4-OHT, reference compound]
phospho-CHK1 (S345), replication stress (phospho-CHK1 (S345)): upregulation
γH2AX, replication stress (γH2AX): upregulation
pRPA (S4/S8), replication stress (pRPA (S4/S8)): upregulation
